Experimental data taken from patent publication US6703347B2, “Isothiazole derivatives and their use as pesticides” (Syngenta Limited, priority 2000, dated 2004).
Where “and” joins values, the source holds several entries; their conditions need not be identical. Equal values may be shown once. Read-outs that look alike come from different tables or passages of the source.

What was measured:
[1] = test system: Uncinula necator (UNCINE); experiment: foliar fungicide test on vines (Example 18); assay type: in vivo; conditions: 100 ppm foliar spray on vines; for UNCINE Erad, PRCO (Percentage Reduction from Control): inoculated one day before chemical application (Erad)
[2] = test system: Phytophthora infestans lycopersici (PHYTIN); assay type: in vivo; conditions: 100 ppm foliar spray on tomatoes; inoculated one day after chemical application (Prot)
[3] = test system: Puccinia recondita (PUCCRT); experiment: foliar fungicide test on wheat (Example 18); assay type: in vivo; conditions: 100 ppm foliar spray on wheat; inoculated one day after chemical application (Prot)
[4] = test system: Blumeria graminis f.sp. tritici (ERYSGT); experiment: foliar fungicide test on wheat (Example 19); assay type: in vivo; conditions: 100 ppm foliar (Prot) application on wheat; inoculated 6 hours or one day after application
[5] = test system: peach potato aphids (Myzus persicae); conditions: 500 ppm by weight; infested Chinese cabbage leaves sprayed; mortality assessed after three days
Method: (§1) This Example illustrates the pesticidal/insecticidal properties of compounds of formula (I). The activities of individual compounds of formula (I) were determined using a variety of pests. The pests were treated with a liquid composition containing 500 parts per million (ppm) by weight of a compound of formula (I). Each composition was made by dissolving the compound in an acetone and ethanol (50:50 by volume) mixture and diluting the solution with water containing 0.05% by volume of a wetting agent, SYNPERONIC NP8, until the liquid composition contained the required concentration of the compound.
(§2) The test procedure adopted with regard to each pest was essentially the same and comprised supporting a number of the pests on a medium, which was usually a substrate, a host plant or a foodstuff on which the pests feed, and treating either or both the medium and the pests with a composition. Pest mortality was assessed usually between two and five days after treatment.
(§3) In each test against peach potato aphids (Myzus persicae), Chinese cabbage leaves were infested with aphids, the infested leaves were sprayed with a test composition and pest mortality was assessed after three days.

[6] = test system: fruit flies (Drosophila melanogaster); experiment: pesticidal test against fruit flies; conditions: liquid composition containing 500 ppm by weight of compound
Method: (§4) The activities of individual compounds of formula (I) were determined using a variety of pests. The pests were treated with a liquid composition containing 500 parts per million (ppm) by weight of a compound of formula (I). Each composition was made by dissolving the compound in an acetone and ethanol (50:50 by volume) mixture and diluting the solution with water containing 0.05% by volume of a wetting agent, SYNPERONIC NP8, until the liquid composition contained the required concentration of the compound.
as §2
(§5) Similar tests were conducted against, independently, two-spotted spider mites (Tetranychus urticae), fruit flies (Drosophila melanogaster), tobacco budworms (Heliothis virescens), diamond back moth (Plutella xylostella) and corn root worm (Diabrotica balteata).

[7] = test system: tobacco budworms (Heliothis virescens); experiment: pesticidal test against tobacco budworms; conditions: liquid composition containing 500 ppm by weight of compound
Method: as §4, §2, §5

[8] = test system: corn root worm (Diabrotica balteata); experiment: pesticidal test against corn root worm; conditions: liquid composition containing 500 ppm by weight of compound
Method: as §4, §2, §5

[9] = test system: peach potato aphids (Myzus persicae); experiment: whole plant or invertebrate; conditions: 72 h, read-out: mortality (score) Mp
Method: as §1, §2, §3

[10] = test system: diamond back moth (Plutella xylostella); experiment: pesticidal test against diamond back moth; conditions: liquid composition containing 500 ppm by weight of compound
Method: as §4, §2, §5

[11] = test system: two-spotted spider mites (Tetranychus urticae); conditions: liquid composition containing 500 ppm by weight of compound
Method: as §4, §2, §5

[12] = test system: Phytophthora infestans lycopersici (PHYTIN); assay type: in vivo; conditions: 100 ppm foliar (Prot) application on tomatoes; inoculated 6 hours or one day after application
[13] = test system: Plasmopara viticola (PLASVI); experiment: foliar fungicide test on vines (Example 19); assay type: in vivo; conditions: 100 ppm foliar (Prot) application on vines; inoculated 6 hours or one day after application
[14] = test system: Pyricularia oryzae (PYRIOR); assay type: in vivo; conditions: 100 ppm foliar spray on rice; inoculated one day after chemical application (Prot)
[15] = test system: Venturia inaequalis (VENTIN); experiment: foliar fungicide test on apples (Example 18); assay type: in vivo; conditions: 100 ppm foliar spray on apples; inoculated one day after chemical application (Prot)

| Structure (SMILES) | mortality (score) Mp [5] | mortality (score) Dm [6] | mortality (score) Hv [7] | mortality (score) Db [8] | mortality (score) Px [10] | mortality (score) Tu [11] | other results |
| --- | --- | --- | --- | --- | --- | --- | --- |
| Cc1nsc(NC(=O)C(c2ccc3oc(CC(C)(C)C)nc3c2)C(C)C)c1Cl (stereo not shown) [Table 3 Compound 7] | – | – | – | – | – | – | UNCINE Erad, PRCO (Percentage Reduction from Control) [1]: 91; PHYTIN Prot, PRCO (Percentage Reduction from Control) [2]: 20; PUCCRT Prot, PRCO (Percentage Reduction from Control) [3]: 19 |
| CCOC(=O)CNN=C(C(=O)Nc1snc(C)c1Cl)c1ccc2oc(CC(C)(C)C)nc2c1 [Table 30 Compound 7] | 9 (9 indicates 80-100% mortality) | – | – | – | – | – | ERYSGT Prot, PRCO (Percentage Reduction from Control) [4]: 100 |
| CCc1nsc(NC(=O)C(C)c2ccc3sc(CC(C)C)nc3c2)c1Cl (stereo not shown) [Table 39 Compound 86, N-(4-chloro-3-ethylisothiazol-5-yl)-2-[2-(2-methylpropyl)benzothiazol-5-yl]propionamide] | – | 0 (represents less than 40% mortality) | 9 (9 indicates 80-100% mortality) | 9 (9 indicates 80-100% mortality) | 9 (9 indicates 80-100% mortality) | – | mortality at 500 ppm [9]: 40 to 79% |
| Cc1nsc(NC(=O)C(=CNCc2ccc(Cl)cc2)c2ccc3oc(CC(C)(C)C)nc3c2)c1Cl [Table 19 Compound 7] | 5 (5 indicates 40-79% mortality) and 9 (9 indicates 80-100% mortality) | – | – | – | – | 9 (9 indicates 80-100% mortality) | – |
| COC=C(C(=O)Nc1snc(C)c1Cl)c1ccc2oc(CC(C)(C)C)nc2c1 [Table 13 Compound 7] | 9 (9 indicates 80-100% mortality) | 0 (represents less than 40% mortality) | – | – | 0 (represents less than 40% mortality) | – | PHYTIN Prot, PRCO (Percentage Reduction from Control) [12]: 100; PLASVI Prot, PRCO (Percentage Reduction from Control) [13]: 100 |
| CCOCN(C(=O)/C=C/c1ccc2oc(CC(C)(C)C)nc2c1)c1snc(C)c1Cl [Table 81 Compound 77] | 0 (represents less than 40% mortality) | 0 (represents less than 40% mortality) | 0 (represents less than 40% mortality) | 9 (9 indicates 80-100% mortality) | 0 (represents less than 40% mortality) | 0 (represents less than 40% mortality) | – |
| Cc1nsc(NC(=O)C(C)c2ccc3oc(CC(C)(C)C)nc3c2)c1Cl (stereo not shown) [Table 1 Compound 7, N-(4-chloro-3-methylisothiazol-5-yl)-2-[2-(2,2-dimethylpropyl)benzoxazol-5-yl]propionamide] | – | – | – | – | – | – | UNCINE Erad, PRCO (Percentage Reduction from Control) [1]: 100; PYRIOR Prot, PRCO (Percentage Reduction from Control) [14]: 24; mortality at 500 ppm [9]: 40 to 79%; PUCCRT Prot, PRCO (Percentage Reduction from Control) [3]: 85 |
| Cc1nsc(NC(=O)C(CC#N)c2ccc3oc(CC(C)(C)C)nc3c2)c1Cl (stereo not shown) [Table 20 Compound 7] | 5 (5 indicates 40-79% mortality) | 0 (represents less than 40% mortality) | 0 (represents less than 40% mortality) | 0 (represents less than 40% mortality) | 9 (9 indicates 80-100% mortality) | 9 (9 indicates 80-100% mortality) | PHYTIN Prot, PRCO (Percentage Reduction from Control) [12]: 72; PLASVI Prot, PRCO (Percentage Reduction from Control) [13]: 100 |
| Cc1nsc(NC(=O)C(SC(C)C)c2ccc3oc(CC(C)(C)C)nc3c2)c1Cl (stereo not shown) [Table 22 Compound 7] | 0 (represents less than 40% mortality) | – | – | – | – | 9 (9 indicates 80-100% mortality) | – |
| Cc1nsc(NC(=O)C(=O)c2ccc3oc(CC(C)(C)C)nc3c2)c1Cl [Table 10 Compound 7] | 9 (9 indicates 80-100% mortality) | – | – | – | 9 (9 indicates 80-100% mortality) | 0 (represents less than 40% mortality) | – |
| CC(=O)OCC(C(=O)Nc1snc(C)c1Cl)c1ccc2oc(CC(C)(C)C)nc2c1 (stereo not shown) [Table 28 Compound 7] | 5 (5 indicates 40-79% mortality) | 0 (represents less than 40% mortality) | 9 (9 indicates 80-100% mortality) | 0 (represents less than 40% mortality) | – | – | ERYSGT Prot, PRCO (Percentage Reduction from Control) [4]: 98; PLASVI Prot, PRCO (Percentage Reduction from Control) [13]: 97 |
| CCOCN(C(=O)C(C)c1ccc2oc(CC(C)(C)C)nc2c1)c1snc(C)c1Cl (stereo not shown) [Table 1 Compound 77] | 9 (9 indicates 80-100% mortality) | 0 (represents less than 40% mortality) | 9 (9 indicates 80-100% mortality) | 9 (9 indicates 80-100% mortality) | 9 (9 indicates 80-100% mortality) | – | – |
| Cc1nsc(NC(=O)C(C)c2ccc3oc(CC(F)(F)F)nc3c2)c1Cl (stereo not shown) [Table 1 Compound 8, N-(4-chloro-3-methylisothiazol-5-yl)-2-[2-(2,2,2-trifluoroethyl)benzoxazol-5-yl]propionamide] | – | 0 (represents less than 40% mortality) | 9 (9 indicates 80-100% mortality) | 9 (9 indicates 80-100% mortality) | 9 (9 indicates 80-100% mortality) | – | mortality at 500 ppm [9]: 40 to 79% |
| Cc1nsc(NC(=O)C(O)c2ccc3oc(CC(C)(C)C)nc3c2)c1Cl (stereo not shown) [Table 7 Compound 7] | 0 (represents less than 40% mortality) | 9 (9 indicates 80-100% mortality) | – | – | 9 (9 indicates 80-100% mortality) | 9 (9 indicates 80-100% mortality) | – |
| Cc1nsc(NC(=O)C(=CN(C)C)c2ccc3oc(CC(C)(C)C)nc3c2)c1Cl [Table 14 Compound 7, N-(4-chloro-3-methylisothiazol-5-yl)-α-[(dimethylamino)methylene]-[2-(2,2-dimethylpropyl)benzoxazol-5-yl]acetamide] | – | – | – | – | – | 9 (9 indicates 80-100% mortality) | UNCINE Erad, PRCO (Percentage Reduction from Control) [1]: 100; ERYSGT Prot, PRCO (Percentage Reduction from Control) [4]: 83; PYRIOR Prot, PRCO (Percentage Reduction from Control) [14]: 92; mortality at 500 ppm [9]: 80 to 100%; VENTIN Prot, PRCO (Percentage Reduction from Control) [15]: 85; PHYTIN Prot, PRCO (Percentage Reduction from Control) [2]: 0; PUCCRT Prot, PRCO (Percentage Reduction from Control) [3]: 98 |
| CCc1nsc(NC(=O)C(OC)c2ccc3oc(CC(C)C)nc3c2)c1Cl (stereo not shown) [Table 9 Compound 86] | 9 (9 indicates 80-100% mortality) | 5 (5 indicates 40-79% mortality) | 9 (9 indicates 80-100% mortality) | 9 (9 indicates 80-100% mortality) | 9 (9 indicates 80-100% mortality) | – | – |
| CCc1nsc(NC(=O)C(F)c2ccc3sc(CC(C)(C)C)nc3c2)c1Cl (stereo not shown) [Table 42 Compound 87] | 9 (9 indicates 80-100% mortality) | 9 (9 indicates 80-100% mortality) | 9 (9 indicates 80-100% mortality) | 9 (9 indicates 80-100% mortality) | 9 (9 indicates 80-100% mortality) | – | – |
| Cc1nsc(NC(=O)C(C)(F)c2ccc3oc(CC(C)(C)C)nc3c2)c1Cl (stereo not shown) [Table 6 Compound 7, N-(4-chloro-3-methylisothiazol-5-yl)-2-[2-(2,2-dimethylpropyl)benzoxazol-5-yl]-2-fluoropropionamide] | – | 5 (5 indicates 40-79% mortality) | 9 (9 indicates 80-100% mortality) | 9 (9 indicates 80-100% mortality) | – | – | mortality at 500 ppm [9]: 80 to 100% |
| CCOCN(C(=O)C(C)c1ccc2sc(CC(C)(C)C)nc2c1)c1snc(CC)c1Cl (stereo not shown) [Table 39 Compound 157] | 9 (9 indicates 80-100% mortality) | 0 (represents less than 40% mortality) | 9 (9 indicates 80-100% mortality) | 9 (9 indicates 80-100% mortality) | 9 (9 indicates 80-100% mortality) | – | – |
| C=C(C(=O)Nc1snc(C)c1Cl)c1ccc2oc(CC(C)(C)C)nc2c1 [Table 11 Compound 7] | – | – | – | – | – | – | UNCINE Prot, PRCO (Percentage Reduction from Control) ([1]; inoculated one day after chemical application (Prot)): 73; PYRIOR Prot, PRCO (Percentage Reduction from Control) [14]: 66; PHYTIN Prot, PRCO (Percentage Reduction from Control) [2]: 50; PUCCRT Prot, PRCO (Percentage Reduction from Control) [3]: 27 |
| CCNC=C(C(=O)Nc1snc(C)c1Cl)c1ccc2oc(CC(C)(C)C)nc2c1 [Table 15 Compound 7, N-(4-chloro-3-methylisothiazol-5-yl)-α-[(ethylamino)methylene]-[2-(2,2-dimeth-ylpropyl)benzoxazol-5-yl]acetamide] | – | – | – | – | – | 9 (9 indicates 80-100% mortality) | UNCINE Erad, PRCO (Percentage Reduction from Control) [1]: 100; PYRIOR Prot, PRCO (Percentage Reduction from Control) [14]: 57; mortality at 500 ppm [9]: 80 to 100%; VENTIN Prot, PRCO (Percentage Reduction from Control) [15]: 53; PUCCRT Prot, PRCO (Percentage Reduction from Control) [3]: 100 |
